From ChEMBL document CHEMBL1201862, “PubChem BioAssay data set” (2004)
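48-hour exposure; five concentrations; linearly interpolated endpoints. GI50: concentration for 50% inhibition of growth.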 Activity calls are given as the source filed them. Cut-off read from the data, not from the text of the source: active = GI50 up to about 1.1 µM and inactive = higher.

Tests used:
Assay in all cases: inhibition of tumour cell growth, NCI panel, 48 h
[1] = test system: K562
[2] = test system: A549
[3] = test system: RPMI-8226
[4] = test system: OVCAR-4
[5] = test system: SNB-19
[6] = test system: Hs-578T
[7] = test system: HL-60
[8] = test system: M14
[9] = test system: MOLT-4
[10] = test system: SW-620
[11] = test system: UACC-62
[12] = test system: MDA-MB-435
[13] = test system: NCI-H460
[14] = test system: MCF7
[15] = test system: NCI-H522
[16] = test system: SNB-75
[17] = test system: U-251
[18] = test system: SF-268
[19] = test system: UACC-257
[20] = test system: HCT-116
[21] = test system: SF-539
[22] = test system: UO-31
[23] = test system: A498
[24] = test system: SN12C
[25] = test system: IGROV-1
[26] = test system: OVCAR-8
[27] = test system: 786-0
[28] = test system: SK-OV-3
[29] = test system: OVCAR-3
[30] = test system: T47D
[31] = test system: DU-145
[32] = test system: SF-295
[33] = test system: HOP-62
[34] = test system: CAKI-1
[35] = test system: NCI-H226
[36] = test system: BT-549
[37] = test system: LOX IMVI
[38] = test system: KM12
[39] = test system: MDA-MB-231
[40] = test system: HOP-92
[41] = test system: NCI-H23
[42] = test system: HT-29
[43] = test system: TK-10
[44] = test system: RXF 393
[45] = test system: PC-3
[46] = test system: HCT-15
[47] = test system: ACHN
[48] = test system: MDA-N
[49] = test system: NCI/ADR-RES
[50] = test system: SK-MEL-5
[51] = test system: CCRF-CEM
[52] = test system: OVCAR-5
[53] = test system: COLO 205
[54] = test system: EKVX
[55] = test system: SK-MEL-2
[56] = test system: SK-MEL-28
[57] = test system: Malme-3M
[58] = test system: HCC 2998

## O=c1c2ccccc2nc(-c2ccc(Cl)cc2)n1O
[1]
  GI50: 22.9 µM (inactive)
[2]
  GI50: 29.4 µM (inactive)
[3]
  GI50: 26.9 µM (inactive)
[4]
  GI50: 37 µM (inactive)
[5]
  GI50: 25.2 µM (inactive)
[6]
  GI50: 76 µM (inactive)
[7]
  GI50: 18.3 µM (inactive)
[8]
  GI50: 26.4 µM (inactive)
[9]
  GI50: 17.9 µM (inactive)
[10]
  GI50: 33.7 µM (inactive)
[11]
  GI50: 35.9 µM (inactive)
[12]
  GI50: 26.5 µM (inactive)
[13]
  GI50: 11.1 µM (inactive)
[14]
  GI50: 20 µM (inactive)
[15]
  GI50: 15.3 µM (inactive)
[16]
  GI50: 38.2 µM (inactive)
[17]
  GI50: 20.8 µM (inactive)
[18]
  GI50: 18.8 µM (inactive)
[19]
  GI50: 24.9 µM (inactive)
[20]
  GI50: 29.7 µM (inactive)
[21]
  GI50: 23.8 µM (inactive)
[22]
  GI50: 2.2 µM (inactive)
[23]
  GI50: 53.7 µM (inactive)
[24]
  GI50: 35.7 µM (inactive)
[25]
  GI50: 2.19 µM (inactive)
[26]
  GI50: 16.5 µM (inactive)
[27]
  GI50: 22.2 µM (inactive)
[28]
  GI50: 28.2 µM (inactive)
[29]
  GI50: 40.2 µM (inactive)
[30]
  GI50: > 100 µM (inactive)
[31]
  GI50: 89.9 µM (inactive)
[32]
  GI50: 27.5 µM (inactive)
[33]
  GI50: 9.12 µM (inactive)
[34]
  GI50: 15.2 µM (inactive)
[35]
  GI50: 15.5 µM (inactive)
[36]
  GI50: 27.3 µM (inactive)
[37]
  GI50: 1.11 µM (active)
[38]
  GI50: 9.53 µM (inactive)
[39]
  GI50: > 100 µM (inactive)
[40]
  GI50: 15.6 µM (inactive)
[41]
  GI50: 48.4 µM (inactive)
[42]
  GI50: 45.7 µM (inactive)
[43]
  GI50: 21.1 µM (inactive)
[44]
  GI50: 26.7 µM (inactive)
[45]
  GI50: 33.9 µM (inactive)
[46]
  GI50: 9.55 µM
[47]
  GI50: 22.5 µM (inactive)
[48]
  GI50: 35.6 µM (inactive)
[49]
  GI50: 19.6 µM (inactive)
[50]
  GI50: 29.9 µM (inactive)
[51]
  GI50: 14.1 µM (inactive)
[52]
  GI50: 47.4 µM (inactive)
[53]
  GI50: 34.6 µM (inactive)
[54]
  GI50: 21.7 µM (inactive)

## Cc1c(/N=C/C=C/c2ccccc2)c(=O)n(-c2ccccc2)n1C
[2]
  GI50: > 100 µM (inactive)
[3]
  GI50: 14.3 µM (inactive)
[4]
  GI50: 13 µM (inactive)
[5]
  GI50: 30.1 µM (inactive)
[6]
  GI50: 23.1 µM (inactive)
[7]
  GI50: 16.1 µM (inactive)
[8]
  GI50: 16.3 µM (inactive)
[9]
  GI50: 12.9 µM (inactive)
[10]
  GI50: 23 µM (inactive)
[11]
  GI50: 17.2 µM (inactive)
[12]
  GI50: 34.4 µM (inactive)
[13]
  GI50: 87.5 µM (inactive)
[14]
  GI50: 21.9 µM (inactive)
[15]
  GI50: 50.8 µM (inactive)
[17]
  GI50: 15.6 µM (inactive)
[18]
  GI50: 33.6 µM (inactive)
[19]
  GI50: 45.3 µM (inactive)
[20]
  GI50: 13.7 µM (inactive)
[21]
  GI50: 23 µM (inactive)
[22]
  GI50: 36.5 µM (inactive)
[23]
  GI50: 14.7 µM (inactive)
[24]
  GI50: 16.1 µM (inactive)
[25]
  GI50: 33.7 µM (inactive)
[26]
  GI50: 17.4 µM (inactive)
[28]
  GI50: > 100 µM (inactive)
[29]
  GI50: 24.5 µM (inactive)
[55]
  GI50: 88.7 µM (inactive)
[30]
  GI50: 23 µM (inactive)
[31]
  GI50: 33.9 µM (inactive)
[32]
  GI50: 14.4 µM (inactive)
[33]
  GI50: 33.3 µM (inactive)
[34]
  GI50: 34.7 µM (inactive)
[35]
  GI50: 13.6 µM (inactive)
[36]
  GI50: 22.8 µM (inactive)
[37]
  GI50: 4.86 µM (inactive)
[38]
  GI50: 21.3 µM (inactive)
[39]
  GI50: 34.8 µM (inactive)
[40]
  GI50: 30.3 µM (inactive)
[41]
  GI50: 23.4 µM (inactive)
[42]
  GI50: 27.5 µM (inactive)
[43]
  GI50: 30.2 µM (inactive)
[44]
  GI50: 39.7 µM (inactive)
[45]
  GI50: 33 µM (inactive)
[46]
  GI50: 47 µM
[47]
  GI50: 29.8 µM (inactive)
[48]
  GI50: 18.5 µM (inactive)
[56]
  GI50: 14.6 µM (inactive)
[57]
  GI50: 25.4 µM (inactive)
[49]
  GI50: 25.9 µM (inactive)
[50]
  GI50: 15.3 µM (inactive)
[51]
  GI50: 6.87 µM (inactive)
[52]
  GI50: 58.9 µM (inactive)
[53]
  GI50: > 100 µM (inactive)
[54]
  GI50: 27.2 µM (inactive)

## Oc1ccc(Br)cc1/C=N/c1cccc(C(F)(F)F)c1
[1]
  GI50: 12.4 µM (inactive)
[2]
  GI50: > 100 µM (inactive)
[3]
  GI50: 28.1 µM (inactive)
[4]
  GI50: 34.8 µM (inactive)
[5]
  GI50: 39.4 µM (inactive)
[6]
  GI50: 28 µM (inactive)
[7]
  GI50: 3.2 µM (inactive)
[8]
  GI50: 17.5 µM (inactive)
[9]
  GI50: 23.1 µM (inactive)
[10]
  GI50: 24 µM (inactive)
[11]
  GI50: 25.1 µM (inactive)
[12]
  GI50: 30.5 µM (inactive)
[13]
  GI50: > 100 µM (inactive)
[14]
  GI50: 14.5 µM (inactive)
[15]
  GI50: > 100 µM (inactive)
[16]
  GI50: 42.6 µM (inactive)
[17]
  GI50: 6.89 µM (inactive)
[18]
  GI50: 8.69 µM (inactive)
[19]
  GI50: 35.6 µM (inactive)
[20]
  GI50: 9.12 µM (inactive)
[21]
  GI50: 20.8 µM (inactive)
[22]
  GI50: 35.6 µM (inactive)
[23]
  GI50: > 100 µM (inactive)
[24]
  GI50: 30.5 µM (inactive)
[25]
  GI50: 6.24 µM (inactive)
[26]
  GI50: 30.4 µM (inactive)
[27]
  GI50: 30.4 µM (inactive)
[28]
  GI50: 45.7 µM (inactive)
[29]
  GI50: 37 µM (inactive)
[55]
  GI50: 19.5 µM (inactive)
[30]
  GI50: 19.9 µM (inactive)
[58]
  GI50: 23.1 µM (inactive)
[31]
  GI50: 36.8 µM (inactive)
[32]
  GI50: 38.6 µM (inactive)
[33]
  GI50: 49.5 µM (inactive)
[34]
  GI50: 66.7 µM (inactive)
[35]
  GI50: 17.3 µM (inactive)
[36]
  GI50: 22.3 µM (inactive)
[37]
  GI50: 18.3 µM (inactive)
[38]
  GI50: 36.6 µM (inactive)
[39]
  GI50: 23.4 µM (inactive)
[40]
  GI50: 35.2 µM (inactive)
[41]
  GI50: 37.2 µM (inactive)
[42]
  GI50: 37.8 µM (inactive)
[43]
  GI50: > 100 µM (inactive)
[44]
  GI50: > 100 µM (inactive)
[45]
  GI50: 7.16 µM (inactive)
[46]
  GI50: 6.07 µM
[47]
  GI50: > 100 µM (inactive)
[48]
  GI50: 32.9 µM (inactive)
[56]
  GI50: 36.1 µM (inactive)
[57]
  GI50: 23.5 µM (inactive)
[49]
  GI50: 28.5 µM (inactive)
[50]
  GI50: 28.3 µM (inactive)
[51]
  GI50: 3.37 µM (inactive)
[52]
  GI50: > 100 µM (inactive)
[53]
  GI50: 96.6 µM (inactive)
[54]
  GI50: 27.1 µM (inactive)
